Experimental data: ChEMBL document CHEMBL4390652, “Design, biological evaluation and X-ray crystallography of nanomolar multifunctional ligands targeting simultaneously acetylcholinesterase and glycogen synthase kinase-3” (Eur J Med Chem, 2019)

Key:
Cholinesterase = Cholinesterase (Homo sapiens, UniProt P06276); test: Inhibition of human serum BChE using BTCh as substrate preincubated for 20 mins followed by substrate addition and measured for 3 mins by Ellman's method
HCT-116 = test: Cytotoxicity against human HCT116 cells assessed as growth inhibition incubated for 48 hrs by Hoechst 33342 staining based assay; type: cell-based; conditions: HCT-116, 48 h
HaCaT = test: Cytotoxicity against human HaCaT cells assessed as growth inhibition incubated for 48 hrs by Hoechst 33342 staining based assay; type: cell-based
[1] = system: ALK tyrosine kinase receptor (Homo sapiens), Q9UM73 [L1196M]; test: Binding affinity to wild-type human partial length ALK L1196M mutant (I1088 to E1409 residues) expressed in mammalian expression system assessed as residual binding level at 10 uM by Kinomescan method relative to control
[2] = target: 5'-AMP-activated protein kinase catalytic subunit alpha-1 (Homo sapiens) (UniProt Q13131); test: Binding affinity to wild-type human partial length AMPK alpha1 (M1 to E306 residues) expressed in bacterial expression system assessed as residual binding level at 10 uM by Kinomescan method relative to control
[3] = target: Bone morphogenetic protein receptor type-1A (Homo sapiens) (UniProt P36894); test: Binding affinity to wild-type human partial length BMPR1A (Q214 to I532 residues) expressed in bacterial expression system assessed as residual binding level at 10 uM by Kinomescan method relative to control
[4] = target: Protein-tyrosine kinase 6 (Homo sapiens) (UniProt Q13882); test: Binding affinity to wild-type human partial length BRK (L166 to T451 residues) expressed in bacterial expression system assessed as residual binding level at 10 uM by Kinomescan method relative to control
Chain of Protein-tyrosine kinase 6 (Homo sapiens) (Q13882 whole entry, looked up, the tested form may be a part): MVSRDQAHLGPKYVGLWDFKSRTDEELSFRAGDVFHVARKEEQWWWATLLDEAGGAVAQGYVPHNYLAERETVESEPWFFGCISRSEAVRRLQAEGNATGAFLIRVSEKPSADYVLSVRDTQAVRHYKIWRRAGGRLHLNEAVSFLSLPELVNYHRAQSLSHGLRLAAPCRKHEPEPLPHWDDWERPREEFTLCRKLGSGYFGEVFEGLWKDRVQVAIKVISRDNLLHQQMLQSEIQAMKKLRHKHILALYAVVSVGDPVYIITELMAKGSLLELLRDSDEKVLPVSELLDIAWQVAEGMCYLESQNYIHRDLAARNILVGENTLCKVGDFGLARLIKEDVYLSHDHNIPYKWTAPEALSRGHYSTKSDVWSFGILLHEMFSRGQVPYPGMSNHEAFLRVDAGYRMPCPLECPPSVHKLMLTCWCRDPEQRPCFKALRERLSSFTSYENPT

[5] = target: Cyclin-dependent kinase-like 5 (Homo sapiens) (UniProt O76039); test: Binding affinity to wild-type human partial length CDKL5 (M1 to S337 residues) expressed in mammalian expression system assessed as residual binding level at 10 uM by Kinomescan method relative to control
[6] = target: Casein kinase I isoform alpha (Homo sapiens) (UniProt P48729); test: Binding affinity to wild-type human partial length CSNK1A1 (M1 to L450 residues) expressed in mammalian expression system assessed as residual binding level at 10 uM by Kinomescan method relative to control
[7] = target: Casein kinase II subunit alpha (Homo sapiens) (UniProt P68400); test: Binding affinity to wild-type human full length CSNK2A1 (M1 to Q391 residues) expressed in mammalian expression system assessed as residual binding level at 10 uM by Kinomescan method relative to control
Chain of Casein kinase II subunit alpha (Homo sapiens) (P68400 whole entry, looked up, the tested form may be a part): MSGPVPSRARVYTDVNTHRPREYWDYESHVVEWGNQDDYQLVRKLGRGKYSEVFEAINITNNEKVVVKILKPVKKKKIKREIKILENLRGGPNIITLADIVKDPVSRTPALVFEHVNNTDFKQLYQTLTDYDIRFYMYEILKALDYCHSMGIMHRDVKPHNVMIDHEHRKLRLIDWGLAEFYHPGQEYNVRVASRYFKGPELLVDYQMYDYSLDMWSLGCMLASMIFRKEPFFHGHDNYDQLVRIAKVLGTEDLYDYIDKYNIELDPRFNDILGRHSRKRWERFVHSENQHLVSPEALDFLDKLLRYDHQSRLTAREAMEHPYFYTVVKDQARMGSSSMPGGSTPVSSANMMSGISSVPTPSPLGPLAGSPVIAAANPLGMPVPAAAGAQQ

[8] = target: Serine/threonine-protein kinase 17A (Homo sapiens) (UniProt Q9UEE5); test: Binding affinity to wild-type human partial length DRAK1 (R32 to E363 residues) expressed in bacterial expression system assessed as residual binding level at 10 uM by Kinomescan method relative to control
[9] = target: Dual specificity tyrosine-phosphorylation-regulated kinase 2 (Homo sapiens) (UniProt Q92630); test: Binding affinity to wild-type human full length DYRK2 (M1 to S528 residues) expressed in mammalian expression system assessed as residual binding level at 10 uM by Kinomescan method relative to control
[10] = target: Mitogen-activated protein kinase 1 (Homo sapiens) (UniProt P28482); test: Binding affinity to wild-type human full length ERK2 (M1 to S360 residues) expressed in bacterial expression system assessed as residual binding level at 10 uM by Kinomescan method relative to control
Chain of Mitogen-activated protein kinase 1 (Homo sapiens) (P28482 whole entry, the tested form may be a part): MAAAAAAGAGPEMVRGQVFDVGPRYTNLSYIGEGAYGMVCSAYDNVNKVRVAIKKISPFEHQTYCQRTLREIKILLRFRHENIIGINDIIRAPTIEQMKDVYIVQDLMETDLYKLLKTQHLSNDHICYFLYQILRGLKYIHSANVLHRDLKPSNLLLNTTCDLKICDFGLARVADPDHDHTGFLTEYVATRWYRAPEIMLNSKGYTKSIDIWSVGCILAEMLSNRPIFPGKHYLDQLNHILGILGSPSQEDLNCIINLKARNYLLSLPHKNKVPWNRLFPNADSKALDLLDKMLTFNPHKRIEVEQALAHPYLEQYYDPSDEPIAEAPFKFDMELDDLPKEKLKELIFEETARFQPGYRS

[11] = target: Serine/threonine-protein kinase/endoribonuclease IRE1 (Homo sapiens) (UniProt O75460); test: Binding affinity to wild-type human partial length ERN1 (S551 to E852 residues) expressed in mammalian expression system assessed as residual binding level at 10 uM by Kinomescan method relative to control
[12] = target: Tyrosine-protein kinase Fyn (Homo sapiens) (UniProt P06241); test: Binding affinity to wild-type human partial length FYN (T243 to L534 residues) expressed in bacterial expression system assessed as residual binding level at 10 uM by Kinomescan method relative to control
[13] = system: Mast/stem cell growth factor receptor Kit (Homo sapiens), P10721 [V559D]; test: Binding affinity to human partial length KIT V559D mutant (Y545 to D952 residues) expressed in bacterial expression system assessed as residual binding level at 10 uM by Kinomescan method relative to control
Chain of Mast/stem cell growth factor receptor Kit (Homo sapiens), P10721 [V559D] (P10721 whole entry V559D, the tested form may be a part): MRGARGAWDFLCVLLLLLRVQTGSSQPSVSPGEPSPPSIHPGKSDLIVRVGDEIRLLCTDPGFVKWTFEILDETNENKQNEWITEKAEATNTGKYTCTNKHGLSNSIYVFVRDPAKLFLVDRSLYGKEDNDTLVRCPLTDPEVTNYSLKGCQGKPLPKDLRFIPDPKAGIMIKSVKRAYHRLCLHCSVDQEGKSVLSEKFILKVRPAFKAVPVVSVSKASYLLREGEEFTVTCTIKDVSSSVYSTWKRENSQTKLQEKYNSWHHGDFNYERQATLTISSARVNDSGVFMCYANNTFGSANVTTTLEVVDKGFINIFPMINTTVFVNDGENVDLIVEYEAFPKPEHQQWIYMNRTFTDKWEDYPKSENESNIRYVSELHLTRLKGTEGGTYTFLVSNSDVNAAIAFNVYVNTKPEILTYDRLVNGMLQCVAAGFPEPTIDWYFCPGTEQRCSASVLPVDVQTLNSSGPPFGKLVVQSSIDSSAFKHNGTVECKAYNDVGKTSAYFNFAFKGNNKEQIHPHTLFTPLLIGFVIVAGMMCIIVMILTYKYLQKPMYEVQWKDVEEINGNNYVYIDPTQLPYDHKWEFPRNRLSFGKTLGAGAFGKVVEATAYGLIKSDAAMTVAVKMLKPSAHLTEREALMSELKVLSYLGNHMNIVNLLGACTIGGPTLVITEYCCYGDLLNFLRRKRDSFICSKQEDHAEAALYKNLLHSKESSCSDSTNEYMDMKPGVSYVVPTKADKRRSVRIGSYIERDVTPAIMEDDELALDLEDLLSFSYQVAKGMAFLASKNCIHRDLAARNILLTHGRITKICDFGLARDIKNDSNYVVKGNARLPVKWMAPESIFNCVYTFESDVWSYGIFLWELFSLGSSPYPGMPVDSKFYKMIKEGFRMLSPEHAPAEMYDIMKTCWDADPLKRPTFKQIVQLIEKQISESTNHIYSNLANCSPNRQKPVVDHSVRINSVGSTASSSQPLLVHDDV

[14] = target: Mitogen-activated protein kinase kinase kinase kinase 2 (Homo sapiens) (UniProt Q12851); test: Binding affinity to wild-type human partial length MAP4K2 (M1 to G318 residues) expressed in mammalian expression system assessed as residual binding level at 10 uM by Kinomescan method relative to control
Chain of Mitogen-activated protein kinase kinase kinase kinase 2 (Homo sapiens) (Q12851 whole entry, the tested form may be a part): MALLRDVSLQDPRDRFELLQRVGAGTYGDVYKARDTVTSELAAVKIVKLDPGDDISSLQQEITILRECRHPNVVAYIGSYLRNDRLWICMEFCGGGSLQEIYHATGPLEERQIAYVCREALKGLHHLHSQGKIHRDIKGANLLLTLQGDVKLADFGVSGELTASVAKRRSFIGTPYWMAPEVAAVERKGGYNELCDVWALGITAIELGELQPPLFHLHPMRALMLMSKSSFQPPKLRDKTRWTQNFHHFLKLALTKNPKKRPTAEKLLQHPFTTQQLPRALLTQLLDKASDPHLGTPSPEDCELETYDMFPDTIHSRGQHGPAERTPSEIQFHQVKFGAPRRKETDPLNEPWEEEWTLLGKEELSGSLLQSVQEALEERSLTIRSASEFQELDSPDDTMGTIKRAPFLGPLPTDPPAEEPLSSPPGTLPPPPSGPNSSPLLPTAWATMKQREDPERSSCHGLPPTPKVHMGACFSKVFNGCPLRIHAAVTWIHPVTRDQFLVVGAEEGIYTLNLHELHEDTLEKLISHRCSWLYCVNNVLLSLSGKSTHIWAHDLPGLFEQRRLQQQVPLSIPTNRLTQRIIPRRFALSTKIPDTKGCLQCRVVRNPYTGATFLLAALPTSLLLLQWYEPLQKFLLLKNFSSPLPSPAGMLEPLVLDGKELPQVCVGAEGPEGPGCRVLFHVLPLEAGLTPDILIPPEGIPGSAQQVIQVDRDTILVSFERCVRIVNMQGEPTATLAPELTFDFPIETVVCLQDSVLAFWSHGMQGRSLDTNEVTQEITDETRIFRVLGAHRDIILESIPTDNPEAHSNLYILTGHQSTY

[15] = target: Maternal embryonic leucine zipper kinase (Homo sapiens) (UniProt Q14680); test: Binding affinity to wild-type human full length MELK (M1 to V651 residues) expressed in bacterial expression system assessed as residual binding level at 10 uM by Kinomescan method relative to control
[16] = target: Serine/threonine-protein kinase 24 (Homo sapiens) (UniProt Q9Y6E0); test: Binding affinity to wild-type human partial length MST3 (A30 to S311 residues) expressed in bacterial expression system assessed as residual binding level at 10 uM by Kinomescan method relative to control
[17] = target: Serine/threonine-protein kinase Nek9 (Homo sapiens) (UniProt Q8TD19); test: Binding affinity to wild-type human partial length NEK9 (P32 to R328 residues) expressed in bacterial expression system assessed as residual binding level at 10 uM by Kinomescan method relative to control
[18] = target: Serine/threonine-protein kinase PknB (Mycobacterium tuberculosis) (UniProt P9WI81); test: Binding affinity to wild-type Mycobacterium tuberculosis partial length PKNB (M1 to G279 residues) expressed in mammalian expression system assessed as residual binding level at 10 uM by Kinomescan method relative to control
Chain of Serine/threonine-protein kinase PknB (Mycobacterium tuberculosis) (P9WI81 whole entry, the tested form may be a part): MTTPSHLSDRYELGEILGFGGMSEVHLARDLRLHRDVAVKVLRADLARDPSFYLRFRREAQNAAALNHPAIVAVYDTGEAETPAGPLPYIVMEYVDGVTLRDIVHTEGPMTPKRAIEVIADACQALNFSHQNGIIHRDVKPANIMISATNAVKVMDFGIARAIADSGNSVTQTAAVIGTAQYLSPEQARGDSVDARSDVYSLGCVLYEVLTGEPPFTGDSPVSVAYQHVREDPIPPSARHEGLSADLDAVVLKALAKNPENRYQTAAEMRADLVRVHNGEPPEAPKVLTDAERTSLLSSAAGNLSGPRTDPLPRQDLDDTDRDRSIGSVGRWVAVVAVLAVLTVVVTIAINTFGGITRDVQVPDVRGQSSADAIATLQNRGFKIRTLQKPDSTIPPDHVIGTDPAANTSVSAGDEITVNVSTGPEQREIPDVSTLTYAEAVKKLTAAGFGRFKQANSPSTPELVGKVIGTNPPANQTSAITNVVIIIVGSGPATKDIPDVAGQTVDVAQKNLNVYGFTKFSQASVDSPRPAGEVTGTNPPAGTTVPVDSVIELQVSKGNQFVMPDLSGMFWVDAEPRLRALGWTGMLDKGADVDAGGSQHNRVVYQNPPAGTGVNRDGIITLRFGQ

[19] = target: Protein-tyrosine kinase 2-beta (Homo sapiens) (UniProt Q14289); test: Binding affinity to wild-type human full length PYK2 (M1 to E967 residues) expressed in bacterial expression system assessed as residual binding level at 10 uM by Kinomescan method relative to control
[20] = target: Proto-oncogene tyrosine-protein kinase Src (Homo sapiens) (UniProt P12931); test: Binding affinity to wild-type human partial length SRC (L240 to L536 residues) expressed in bacterial expression system assessed as residual binding level at 10 uM by Kinomescan method relative to control
Chain of Proto-oncogene tyrosine-protein kinase Src (Homo sapiens) (P12931 2-536 limits assumed): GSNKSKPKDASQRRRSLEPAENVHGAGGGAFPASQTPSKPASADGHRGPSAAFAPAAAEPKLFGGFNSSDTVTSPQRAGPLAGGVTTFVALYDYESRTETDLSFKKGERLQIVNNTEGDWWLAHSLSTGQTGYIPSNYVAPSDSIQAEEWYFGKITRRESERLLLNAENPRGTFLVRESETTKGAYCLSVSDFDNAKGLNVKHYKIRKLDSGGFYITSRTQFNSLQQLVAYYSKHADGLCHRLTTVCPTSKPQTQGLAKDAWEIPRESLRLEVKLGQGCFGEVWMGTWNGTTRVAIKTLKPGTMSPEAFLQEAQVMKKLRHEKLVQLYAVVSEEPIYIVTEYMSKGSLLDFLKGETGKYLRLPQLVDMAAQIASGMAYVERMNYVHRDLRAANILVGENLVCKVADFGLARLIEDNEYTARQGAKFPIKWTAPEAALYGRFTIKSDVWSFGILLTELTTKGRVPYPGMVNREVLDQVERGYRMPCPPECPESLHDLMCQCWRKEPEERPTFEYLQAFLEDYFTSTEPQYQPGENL

[21] = target: Non-receptor tyrosine-protein kinase TYK2 (Homo sapiens) (UniProt P29597); test: Binding affinity to wild-type human partial length TYK2 JH2 pseudokinase domain (G556 to D888 residues) expressed in mammalian expression system assessed as residual binding level at 10 uM by Kinomescan method relative to control
[22] = target: Tyrosine-protein kinase Yes (Homo sapiens) (UniProt P07947); test: Binding affinity to wild-type human partial length YES (T257 to L543 residues) expressed in bacterial expression system assessed as residual binding level at 10 uM by Kinomescan method relative to control
Chain of Tyrosine-protein kinase Yes (Homo sapiens) (P07947 2-543 limits assumed): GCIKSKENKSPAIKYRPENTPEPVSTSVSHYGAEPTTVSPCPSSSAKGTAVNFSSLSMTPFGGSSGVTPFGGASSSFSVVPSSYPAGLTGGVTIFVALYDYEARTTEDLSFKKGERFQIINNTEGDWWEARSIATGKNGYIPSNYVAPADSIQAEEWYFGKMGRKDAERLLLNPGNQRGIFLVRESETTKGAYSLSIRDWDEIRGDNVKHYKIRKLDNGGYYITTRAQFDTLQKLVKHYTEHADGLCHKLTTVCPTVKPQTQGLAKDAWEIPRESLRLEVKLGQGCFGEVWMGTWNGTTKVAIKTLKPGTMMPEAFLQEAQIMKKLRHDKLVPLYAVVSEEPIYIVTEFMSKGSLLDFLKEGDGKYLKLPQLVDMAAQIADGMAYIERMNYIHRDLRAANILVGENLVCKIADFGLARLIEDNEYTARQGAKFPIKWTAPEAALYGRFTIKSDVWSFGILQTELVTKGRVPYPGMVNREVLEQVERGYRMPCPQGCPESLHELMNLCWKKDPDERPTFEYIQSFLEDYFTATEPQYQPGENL

MDR1 = test: in vitro; conditions: dog, MDCK-MDR1
Description: Apparent permeability across apical to basolateral side in MDCK2-MDR1 cells by HPLC analysis

O=C(Nc1cc(-c2cn(CCNc3c4c(nc5ccccc35)CCCC4)nn2)ccn1)Nc1cccc2c1C1CCCCN1C2=O (racemic)
IC50 (Cholinesterase): 0.301 µM
IC50 (HCT-116): 3 µM
IC50 (HaCaT): 5 µM
Activity [1]: 100%
Activity [2]: 31%
Activity [3]: 92%
Activity [4]: 90%
Activity [5]: 0.35%
Activity [6]: 5.3%
Activity [7]: 33%
Activity [8]: 0.3%
Activity [9]: 53%
Activity [10]: 94%
Activity [11]: 87%
Activity [12]: 74%
Activity [13]: 0.05%
Activity [14]: 9.2%
Activity [15]: 14%
Activity [16]: 59%
Activity [17]: 62%
Activity [18]: 3.3%
Activity [19]: 74%
Activity [20]: 24%
Activity [21]: 19%
Activity [22]: 76%
Papp A→B (MDR1): 11.1 ×10⁻⁶ cm/s
